Test results: patent publication US12440496B2, “Natriuretic peptide receptor a agonists useful for the treatment of cardiometabolic diseases, kidney disease and diabetes” (Merck Sharp & Dohme LLC, priority 2019, dated 2025)

target: T1, hNPRA (Homo sapiens, UniProt P16066); assay: NPRA Functional Cell Assay (cGMP HTRF, NPRA HEK JumpIn stable cells); assay type: cell-based; details: cGMP production, 1 hour at 37° C., 10-point dose response
T1 construct: expressed in transfected cells
T1 sequence (P16066 33-1061): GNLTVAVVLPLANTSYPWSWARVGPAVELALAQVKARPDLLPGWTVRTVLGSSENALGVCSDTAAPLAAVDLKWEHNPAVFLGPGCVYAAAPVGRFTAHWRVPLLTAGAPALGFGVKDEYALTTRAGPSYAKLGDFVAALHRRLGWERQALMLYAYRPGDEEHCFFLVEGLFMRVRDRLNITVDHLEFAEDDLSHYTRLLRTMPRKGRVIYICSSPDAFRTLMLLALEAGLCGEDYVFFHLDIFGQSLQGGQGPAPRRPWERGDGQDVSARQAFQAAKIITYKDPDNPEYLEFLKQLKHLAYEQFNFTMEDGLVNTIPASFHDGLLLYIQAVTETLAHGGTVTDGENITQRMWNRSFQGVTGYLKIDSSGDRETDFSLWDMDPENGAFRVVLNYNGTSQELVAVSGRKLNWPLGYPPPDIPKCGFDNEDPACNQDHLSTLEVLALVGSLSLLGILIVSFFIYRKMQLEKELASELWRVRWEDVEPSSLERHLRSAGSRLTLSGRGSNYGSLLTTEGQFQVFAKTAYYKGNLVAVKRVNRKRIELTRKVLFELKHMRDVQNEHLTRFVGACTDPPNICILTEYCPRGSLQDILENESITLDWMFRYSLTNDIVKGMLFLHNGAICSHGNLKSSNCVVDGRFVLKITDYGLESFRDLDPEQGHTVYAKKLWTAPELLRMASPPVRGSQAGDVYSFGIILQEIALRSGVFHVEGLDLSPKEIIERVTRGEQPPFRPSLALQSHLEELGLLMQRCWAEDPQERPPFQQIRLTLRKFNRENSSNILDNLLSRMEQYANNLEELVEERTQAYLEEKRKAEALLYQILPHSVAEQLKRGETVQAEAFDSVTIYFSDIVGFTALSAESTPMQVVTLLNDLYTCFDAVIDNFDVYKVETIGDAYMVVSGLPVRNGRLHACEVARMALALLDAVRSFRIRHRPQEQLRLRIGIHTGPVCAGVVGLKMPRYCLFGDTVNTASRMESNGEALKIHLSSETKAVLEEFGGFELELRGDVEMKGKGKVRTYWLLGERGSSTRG
Procedure, shortened: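 cGMP HTRF read-out after 1 hour compound treatment at 37° C. of human NPRA-expressing HEK JumpIn cells, 1500 cells/well, in buffer with phosphodiesterase inhibitors IBMX and RO20 (100 uM each). Signal converted to [cGMP] by calibration curve; EC50s fitted by 4-parameter logistic; 50 nM h-ANP as positive response.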

**Q.** `COC(=O)C1CN(C(=O)c2cccc([C@@H](CCN3CCC(O)CC3)NC(=O)c3nc4cc5c(nc4s3)CC[C@H](C(C)(C)C)C5)c2)CCO1` (mixture of isomers) [Example 160, methyl 4-[3-[rac-(1R)-3-(4-hydroxy-1-piperidyl)-1-[[rac-(7S)-7-tert-butyl-5,6,7,8-tetrahydrothiazolo[5,4-b]quinoline-2-carbonyl]amino]propyl]benzoyl]morpholine-2-carboxylate] was tested. Which EC50 did it give?
**A.** 1210 nM

**Q.** `CC(C)(C)[C@H]1CCc2nc3sc(C(=O)N[C@H](CCN4CCC(O)CC4)c4cccc(C(=O)N5CCO[C@H]6CNC[C@H]65)c4)nc3cc2C1` (racemic) [Example 161, rac-(7S)-7-tert-butyl-N-[rac-(1R)-3-(4-hydroxy-1-piperidyl)-1-[3-[rac-(4aR,7aS)-3,4a,5,6,7,7a-hexahydro-2H-pyrrolo[3,4-b][1,4]oxazine-4-carbonyl]phenyl]propyl]-5,6,7,8-tetrahydrothiazolo[5,4-b]quinoline-2-carboxamide] was tested. Which EC50 did it give?
**A.** 1950 nM

**Q.** How did the EC50 turn out when `CC(C)(C)[C@H]1CCc2nc3sc(C(=O)N[C@H](CCN4CCC(O)CC4)c4ccc(-c5ccnnc5)cc4)nc3cc2C1` (racemic) [Example 162, rac-(7S)-7-tert-butyl-N-[rac-(1R)-3-(4-hydroxy-1-piperidyl)-1-(4-pyridazin-4-ylphenyl)propyl]-5,6,7,8-tetrahydrothiazolo[5,4-b]quinoline-2-carboxamide] was run?
**A.** 198 nM

**Q.** Which EC50 does the source give for `CC(C)(C)[C@H]1CCc2nc3sc(C(=O)N[C@H](CCN4CCC(O)CC4)c4ccc(-c5cc[n+]([O-])nc5)cc4)nc3cc2C1` (racemic) [Example 163, rac-(7S)-7-tert-butyl-N-[rac-(1R)-3-(4-hydroxypiperidin-1-ium-1-yl)-1-[4-(1-oxidopyridazin-1-ium-4-yl)phenyl]propyl]-5,6,7,8-tetrahydrothiazolo[5,4-b]quinoline-2-carboxamide; 2,2,2-trifluoroacetate] here?
**A.** 357 nM

**Q.** With `CC(C)(C)[C@H]1CCc2nc3sc(C(=O)N[C@H](CCN4CCC(O)CC4)c4ccc(-c5ccc(=O)[nH]c5)cc4)nc3cc2C1` (racemic) [Example 164, rac-(7S)-7-tert-butyl-N-[rac-(1R)-3-(4-hydroxypiperidin-1-ium-1-yl)-1-[4-(6-hydroxy-3-pyridyl)phenyl]propyl]-5,6,7,8-tetrahydrothiazolo[5,4-b]quinoline-2-carboxamide; 2,2,2-trifluoroacetate] as the molecule, how does the EC50 read?
**A.** 590 nM

**Q.** How did the EC50 turn out when `CC(C)(C)[C@H]1CCc2nc3sc(C(=O)N[C@H](CCN4CCC(O)CC4)c4ccc(-c5ccc(O)nn5)cc4)nc3cc2C1` (racemic) [Example 165, rac-(7S)-7-tert-butyl-N-[rac-(1R)-3-(4-hydroxypiperidin-1-ium-1-yl)-1-[4-(6-hydroxypyridazin-3-yl)phenyl]propyl]-5,6,7,8-tetrahydrothiazolo[5,4-b]quinoline-2-carboxamide; 2,2,2-trifluoroacetate] was run?
**A.** 611 nM

**Q.** How did the EC50 turn out when `CC(C)(C)[C@H]1CCc2nc3sc(C(=O)N[C@H](CCN4CCC(O)CC4)c4ccc(-c5c[nH]nc5C#N)cc4)nc3cc2C1` (racemic) [Example 166, rac-(7S)-7-tert-butyl-N-[rac-(1R)-1-[4-(3-cyano-1H-pyrazol-4-yl)phenyl]-3-(4-hydroxypiperidin-1-ium-1-yl)propyl]-5,6,7,8-tetrahydrothiazolo[5,4-b]quinoline-2-carboxamide; 2,2,2-trifluoroacetate] was run?
**A.** 614 nM

**Q.** With `CC(C)(C)[C@H]1CCc2nc3sc(C(=O)N[C@H](CCN4CCC(O)CC4)c4ccc(-c5c[nH]nc5C(F)(F)F)cc4)nc3cc2C1` (racemic) [Example 167, rac-(7S)-7-tert-butyl-N-[rac-(1R)-3-(4-hydroxypiperidin-1-ium-1-yl)-1-[4-[3-(trifluoromethyl)-1H-pyrazol-4-yl]phenyl]propyl]-5,6,7,8-tetrahydrothiazolo[5,4-b]quinoline-2-carboxamide; 2,2,2-trifluoroacetate] as the molecule, how does the EC50 read?
**A.** 666 nM

**Q.** With `CC(C)(C)[C@H]1CCc2nc3sc(C(=O)N[C@H](CCN4CCC(O)CC4)c4ccc(-c5ccnc(N)c5)cc4)nc3cc2C1` (racemic) [Example 168, rac-(7S)-7-tert-butyl-N-[rac-(1R)-1-[4-(2-amino-4-pyridyl)phenyl]-3-(4-hydroxy-1-piperidyl)propyl]-5,6,7,8-tetrahydrothiazolo[5,4-b]quinoline-2-carboxamide] as the molecule, how does the EC50 read?
**A.** 773 nM

**Q.** For `CC(C)(C)[C@H]1CCc2nc3sc(C(=O)N[C@H](CCN4CCC(O)CC4)c4ccc(-c5ncns5)cc4)nc3cc2C1` (racemic) [Example 169, rac-(7S)-7-tert-butyl-N-[rac-(1R)-3-(4-hydroxy-1-piperidyl)-1-[4-(1,2,4-thiadiazol-5-yl)phenyl]propyl]-5,6,7,8-tetrahydrothiazolo[5,4-b]quinoline-2-carboxamide], which EC50 is on record?
**A.** 793 nM

**Q.** How did the EC50 turn out when `Cn1cnnc1-c1ccc([C@@H](CCN2CCC(O)CC2)NC(=O)c2nc3cc4c(nc3s2)CC[C@H](C(C)(C)C)C4)cc1` (racemic) [Example 170, rac-(7S)-7-tert-butyl-N-[rac-(1R)-3-(4-hydroxy-1-piperidyl)-1-[4-(4-methyl-1,2,4-triazol-3-yl)phenyl]propyl]-5,6,7,8-tetrahydrothiazolo[5,4-b]quinoline-2-carboxamide] was run?
**A.** 863 nM

**Q.** `Cc1n[nH]cc1-c1ccc([C@@H](CCN2CCC(O)CC2)NC(=O)c2nc3cc4c(nc3s2)CC[C@H](C(C)(C)C)C4)cc1` (racemic) [Example 171, rac-(7S)-7-tert-butyl-N-[rac-(1R)-3-(4-hydroxy-1-piperidyl)-1-[4-(3-methyl-1H-pyrazol-4-yl)phenyl]propyl]-5,6,7,8-tetrahydrothiazolo[5,4-b]quinoline-2-carboxamide] was tested. Which EC50 did it give?
**A.** 913 nM

**Q.** How did the EC50 turn out when `CC(C)(C)[C@H]1CCc2nc3sc(C(=O)N[C@H](CCN4CCC(O)CC4)c4ccc(-c5cnc(O)c(C#N)c5)cc4)nc3cc2C1` (racemic) [Example 172, rac-(7S)-7-tert-butyl-N-[rac-(1R)-1-[4-(5-cyano-6-hydroxy-3-pyridyl)phenyl]-3-(4-hydroxypiperidin-1-ium-1-yl)propyl]-5,6,7,8-tetrahydrothiazolo[5,4-b]quinoline-2-carboxamide; 2,2,2-trifluoroacetate] was run?
**A.** 925 nM

**Q.** For `Cc1n[nH]c(C)c1-c1ccc([C@@H](CCN2CCC(O)CC2)NC(=O)c2nc3cc4c(nc3s2)CC[C@H](C(C)(C)C)C4)cc1` (racemic) [Example 173, rac-(7S)-7-tert-butyl-N-[rac-(1R)-1-[4-(3,5-dimethyl-1H-pyrazol-4-yl)phenyl]-3-(4-hydroxy-1-piperidyl)propyl]-5,6,7,8-tetrahydrothiazolo[5,4-b]quinoline-2-carboxamide], which EC50 is on record?
**A.** 959 nM

**Q.** For `Cc1[nH]cnc1-c1ccc([C@@H](CCN2CCC(O)CC2)NC(=O)c2nc3cc4c(nc3s2)CC[C@H](C(C)(C)C)C4)cc1` (racemic) [Example 174, rac-(7S)-7-tert-butyl-N-[rac-(1R)-3-(4-hydroxy-1-piperidyl)-1-[4-(5-methyl-1H-imidazol-4-yl)phenyl]propyl]-5,6,7,8-tetrahydrothiazolo[5,4-b]quinoline-2-carboxamide], which EC50 is on record?
**A.** 991 nM

**Q.** With `CC(C)(C)[C@H]1CCc2nc3sc(C(=O)N[C@H](CCN4CCC(O)CC4)c4ccc(-c5ccncc5N)cc4)nc3cc2C1` (racemic) [Example 175, rac-(7S)-7-tert-butyl-N-[rac-(1R)-1-[4-(3-amino-4-pyridyl)phenyl]-3-(4-hydroxy-1-piperidyl)propyl]-5,6,7,8-tetrahydrothiazolo[5,4-b]quinoline-2-carboxamide] as the molecule, how does the EC50 read?
**A.** 1020 nM

**Q.** With `CC(C)(C)[C@H]1CCc2nc3sc(C(=O)N[C@H](CCN4CCC(O)CC4)c4ccc(-c5cnoc5)cc4)nc3cc2C1` (racemic) [Example 176, rac-(7S)-7-tert-butyl-N-[rac-(1R)-3-(4-hydroxypiperidin-1-ium-1-yl)-1-(4-isoxazol-4-ylphenyl)propyl]-5,6,7,8-tetrahydrothiazolo[5,4-b]quinoline-2-carboxamide; 2,2,2-trifluoroacetate] as the molecule, how does the EC50 read?
**A.** 1030 nM

**Q.** With `Cn1nnnc1-c1ccc([C@@H](CCN2CCC(O)CC2)NC(=O)c2nc3cc4c(nc3s2)CC[C@H](C(C)(C)C)C4)cc1` (racemic) [Example 177, rac-(7S)-7-tert-butyl-N-[rac-(1R)-3-(4-hydroxypiperidin-1-ium-1-yl)-1-[4-(1-methyltetrazol-5-yl)phenyl]propyl]-5,6,7,8-tetrahydrothiazolo[5,4-b]quinoline-2-carboxamide; 2,2,2-trifluoroacetate] as the molecule, how does the EC50 read?
**A.** 1150 nM
